Data from US20180325891A1, “OCTAHYDRO AZADECALIN FORMULATIONS” (Corcept Therapeutics, Inc., priority 2017, published 2018).

Assay: Solubility assessment of CORT125281 in various excipients
Type: physicochemical
Procedure: The solubility of the API was assessed in Labrasol, Kolliphor RH40, Kollisolv P124 and Kolliphor HS15 in order to assess scope for formulation alternatives. […] It is probable that these would be able to be solubilized given more time/energy input.

- solubility of the API in excipient (in Kolliphor RH40): < 40 mg/g
- solubility of the API in excipient (in Kollisolv P124): < 40 mg/g
Structure (SMILES): Cn1ncc(S(=O)(=O)N2CC[C@H]3Cc4c(cnn4-c4ccc(F)cc4)C[C@]3(C(=O)c3cc(C(F)(F)F)ccn3)C2)n1 [CORT125281, ((4aR,8aS)-1-(4-fluorophenyl)-6-((2-methyl-2H-1,2,3-triazol-4-yl)sulfonyl)-4,4a,5,6,7,8,8a,9-octahydro-1H-pyrazolo[3,4-g]isoquinolin-4a-yl)(4-(trifluoromethyl)pyridin-2-yl)methanone]
- solubility of the API in excipient, visual and microscopic analysis (Kolliphor HS15 mix): visibly clear, but upon microscopic analysis, they were found to contain a small number of API crystals
- solubility of the API in excipient, visual and microscopic analysis (Labrasol mix): visibly clear, but upon microscopic analysis, they were found to contain a small number of API crystals
